In patent publication US6346615B1, “Chemiluminescent 1,2-dioxetanes” (Tropix, Inc., priority 1989, dated 2002):

Key:
alkaline phosphatase [1] = experiment: Chemiluminescence emission wavelength maximum (Spex Fluorolog); format: biochemical; details: for μL em: 0.1M DEA, pH, 25° C., dioxetane concentration 3.7 × 10^−7M to 6 × 10^−6M; for Emission Max, nm, +BDMQ: in the presence of BDMQ; for Emission Max, nm, No Addition: no enhancement agent; for Emission Max, nm, On Nylon: on a nylon membrane
Description: […] The solution was equilibrated 5 minutes in a Spex Fluorolog Fluorimeter and then scanned 5 times at 0.5 sec/nm for chemiluminescent emission. The chemiluminescence emission wavelength maximum was recorded.

alkaline phosphatase [2] = experiment: Quantum yield determination of dioxetane chemiluminescence after alkaline phosphatase addition; format: biochemical; details: 0.1M DEA, pH, 25° C., dioxetane concentration 3.7 × 10^−7M to 6 × 10^−6M
Excerpt: Various dioxetanes within the scope of this invention have been prepared and tested for essential properties, such as quantum yield (performed by an independent laboratory according to the procedure listed below), T½ and the emission wavelength maxima. These dioxetanes are identified by number, and in the tables following after the number, the identity of the substituent on the adamantyl ring, if any followed by the identity of the Z substituent is given. In the compounds tested, X is phosphate. Values for quantum yield and T½ are obtained both for the dioxetane along in 0.1 molar DEA, and in the presence of an enhancement agent, Sapphire II.
[…] […] […] The tube was then placed in MGM Optocomp® I luminometer and the light signal was measured at 1 sec integration times. […] The total counts for the dioxetane were determined from the intensity data. Total counts observed for a given concentration of dioxetane is the product of Photon Detection Efficiency (PDE) of the luminometer, the quantum yield of dioxetane and the number of molecules capable of emitting light (concentration of dephosphorylated dioxetanes). PDE for the MGM Optocomp® I luminometer was determined to be 2.56×10^−3, measured with a Biolink® absolute standard and utilizing the known spectral response of the luminometer's PMT and the known emission spectrum of the dioxetanes. The quantum yield is calculated by dividing the total counts measured by the PDE and the concentration of the dioxetane.

With `COC1(c2cccc(OP(=O)(O)O)c2)OOC12C1CC3CC(C1)CC2C3` (stereo not drawn) [AMPPD, 3-(2′-spiroadamantane)4-methoxy-4-(3″-phosphoryloxy)phenyl-1,2-dioxetane, reference compound] the μL em (alkaline phosphatase [1]) was 477, the μL em (alkaline phosphatase [1]; second table) was 477 and the “Quantum Yield” value (alkaline phosphatase [2]) was 1.5 × 10^−5. The “Quantum Yield” value (alkaline phosphatase [2]; second table) was 1.5 × 10^−5.
In the case of `COC1(c2cccc(OP(=O)(O)O)c2)OOC12C1CC3CC2CC(Cl)(C3)C1` (stereo not drawn) [CSPD, reference compound], the μL em (alkaline phosphatase [1]) is reported as 475, the μL em (alkaline phosphatase [1]; second table) is reported as 475 and the “Quantum Yield” value (alkaline phosphatase [2]) is reported as 5.2 × 10^−5. For the same molecule, the “Quantum Yield” value (alkaline phosphatase [2]; second table) was 5.2 × 10^−5.
For `COC1(c2cc(Cl)cc(OP(=O)([O-])[O][NaH2-2])c2)OOC12C1CC3CC(C1)CC2C3.[Na+]` (stereo not drawn) [Dioxetane 128-70, Disodium 3-chloro-5-(methoxyspiro(1,2-dioxetane-3,2′-tricylo[3.3.1.1^3,7]-decan]-4-yl)-1-phenyl Phosphate], the μL em (alkaline phosphatase [1]) was 471, the “Emission Max, nm, +BDMQ” value (alkaline phosphatase [1]) was 463 nm and the “Emission Max, nm, No Addition” value (alkaline phosphatase [1]) was 471 nm. The “Emission Max, nm, On Nylon” value (alkaline phosphatase [1]) was 461 nm, the μL em (alkaline phosphatase [1]; second table) was 471 and the “Quantum Yield” value (alkaline phosphatase [2]) was 1.4 × 10^−4. For the same molecule, the “Quantum Yield” value (alkaline phosphatase [2]; second table) was 1.4 × 10^−4.
With `COC1(c2cc(Cl)cc(OP(=O)([O-])[O][NaH2-2])c2)OOC12C1CC3CC2CC(Cl)(C3)C1.[Na+]` (stereo not drawn) [Dioxetane 128-87, Disodium 3-chloro-5-(methoxyspiro(1,2-dioxetane-3,2′-(5-chloro-)tricyclo-[3.3.1.1^3,7]-decan]-4-yl)-1-phenyl Phosphate] the μL em (alkaline phosphatase [1]) was 470, the “Emission Max, nm, +BDMQ” value (alkaline phosphatase [1]) was 464 nm and the “Emission Max, nm, No Addition” value (alkaline phosphatase [1]) was 470 nm. The “Emission Max, nm, On Nylon” value (alkaline phosphatase [1]) was 459 nm, the μL em (alkaline phosphatase [1]; second table) was 470 and the “Quantum Yield” value (alkaline phosphatase [2]) was 1.2 × 10^−4. The “Quantum Yield” value (alkaline phosphatase [2]; second table) was 1.2 × 10^−4.
`COc1cc(OP(=O)([O-])[O][NaH2-2])cc(C2(OC)OOC23C2CC4CC3CC(Cl)(C4)C2)c1.[Na+]` (stereo not drawn) [Dioxetane 140-17, Disodium 5-methoxy-3-(methoxyspiro(1,2-dioxetane-3,2′-(5-chloro-)tricyclo-[3.3.1.1^3,7]-decan]-4-yl)-1-phenyl Phosphate] was tested, and the μL em (alkaline phosphatase [1]) was 475, the “Emission Max, nm, +BDMQ” value (alkaline phosphatase [1]) was 464 nm and the “Emission Max, nm, No Addition” value (alkaline phosphatase [1]) was 475 nm. For the same molecule, the “Emission Max, nm, On Nylon” value (alkaline phosphatase [1]) was 463 nm, the μL em (alkaline phosphatase [1]; second table) was 475 and the “Quantum Yield” value (alkaline phosphatase [2]) was 2.3 × 10^−5. For the same molecule, the “Quantum Yield” value (alkaline phosphatase [2]; second table) was 2.3 × 10^−5.
With `COc1cc(OP(=O)([O-])[O][NaH2-2])cc(C2(OC)OOC23C2CC4CC(C2)CC3C4)c1.[Na+]` (stereo not drawn) [Dioxetane 140-20, Disodium 5-methoxy-3-(methoxyspiro(1,2-dioxetane-3,2′-tricyclo[3.3.1.1^3,7]-decan]-4-yl)-1-phenyl Phosphate] the μL em (alkaline phosphatase [1]) was 476, the “Emission Max, nm, +BDMQ” value (alkaline phosphatase [1]) was 466 nm and the “Emission Max, nm, No Addition” value (alkaline phosphatase [1]) was 476 nm. For the same molecule, the “Emission Max, nm, On Nylon” value (alkaline phosphatase [1]) was 461 nm, the μL em (alkaline phosphatase [1]; second table) was 476 and the “Quantum Yield” value (alkaline phosphatase [2]) was 1.5 × 10^−5. For the same molecule, the “Quantum Yield” value (alkaline phosphatase [2]; second table) was 1.5 × 10^−5.
